# Where “and” joins values, the source holds several entries; their conditions need not be identical. Identical values can stand only once.
# How the values were obtained:
# E. coli harboring pUD15 = assay type: cell-based
# [1] = system: E. coli harboring pUD15 and pUD16; assay type: cell-based
compound,measurement,setting,value
"[Cl-].[Cl-].[Co+2] [CoC12, CoCl2]",optical density of the culture at 600 nm,E. coli harboring pUD15,2.808 and 2.6955 and 2.330
same,optical density of the culture at 600 nm,[1],2.524 and 2.173 and 2.113

# Reference: patent US7491521B2 (priority 2004, dated 2009)
